{
  "source": "patent US11173178B2",
  "about": "“Liposomes for drug delivery and methods for preparation thereof” (priority 2008, dated 2021)",
  "assay": "Stability of oxaliplatin in hydration solution (UV, absorbance at 254 nm)",
  "assay_type": "physicochemical",
  "protocol": "Oxaliplatin was dissolved in a hydration solution containing 10% sucrose and 1 mM Calcium gluconate (10 mg/ml). Sucrose was added to obtain an osmolarity approximately corresponding to physiological salt concentration. Stability of oxaliplatin in the hydration solution was followed by UV measurement. Samples were taken continually during storage at room temperature. Sample concentration measured was 0.1 mg/ml oxaliplatin. In order to follow the oxaliplatin stability a scan was performed from 200-350 nm (FIG. 1) and the absorbance at 254 nm was compared during storage (FIG. 2). Major changes in absorbance at 254 nm are usually related to oxaliplatin decomposition, which can easily be observed by dissolving oxaliplatin in solutions containing hydroxide and/or chloride ions.",
  "data": [
    {"compound": "O=C1[O][Pt]2([NH][C@@H]3CCCC[C@H]3[NH]2)[O]C1=O", "note": "[Oxaliplatin, oxaliplatin]", "values": [
      {"measurement": "decomposition during storage (absorbance at 254 nm)", "setting": "10% sucrose solution containing 1 mM calcium gluconate, room temperature, at least 35 days", "result": "practically no decomposition"},
      {"measurement": "absorbance at 254 nm with common buffer components", "setting": "phosphate, citrate, acetate, ethanolamine (data not shown)", "result": "decrease the absorbance at 254 nm"}
    ]}
  ]
}
